The source of these data is US20100249419A1, “UTILIZATION OF NOVEL COMPOUNDS WITH AMYLOID AFFINITY AND METHOD OF PRODUCING THE SAME” (NIHON MEDI-PHYSICS CO., LTD., priority 2007, published 2010).

The conditions of data set [1]: [^125I]-labeled compounds, normal mice; cited from earlier work.
Data set [2] has as its system Salmonella typhimurium TA100. Kind of data set: Reverse mutation test (Ames test), TA100. The data set is classed as cell-based. The procedure: (§1) In order to examine gene mutagenicity of Compounds 3, 5 and 8, reverse mutation test using Salmonella typhimurium TA98 and TA100 (hereinafter referred to as Ames test) was conducted.
(§2) The test was conducted without addition of S9mix and with addition of S9mix. Dimethylsulfoxide (hereinafter referred to as DMSO) was used as a negative control. A positive control was 2-(2-furyl)-3-(5-nitro-2-furyl)acrylamide (hereinafter referred to as AF-2) in case S9mix was not added, and 2-aminoanthracene (hereinafter referred to as 2-AA) in case S9mix was added.
(§3) As a sample solution to be added to a test plate, each compound was dissolved in DMSO to prepare a solution at a concentration of 50 mg/mL, and further, each solution was diluted with DMSO to prepare a solution with 7 dosage (geometric ratio 3). As a sample solution for preparing a sample of positive control, when TA98 was used as a test strain without addition of S9mix, a solution of AF-2 (compound concentration: 1 μg/mL) in DMSO was prepared; when TA100 was used as a test strain without addition of S9mix, a solution of AF-2 (compound concentration: 0.1 μg/mL) in DMSO was prepared; when TA98 was used as a test strain with addition of S9mix, a solution of 2-AA (compound concentration: 5 μg/mL) in DMSO was prepared; and when TA100 was used as a test strain with addition of S9mix, a solution of 2-AA (compound concentration: 10 μg/mL) in DMSO was prepared.
(§4) After each sample solution to be examined and a test strain (TA98 or TA100) were mixed together so as to make the addition amount of each sample to be 0.1 mL/plate, the mixture was multilayered using soft agar on a medium of a test plate, and then incubated at 37° C. for 48 hours. Separately, after each sample solution to be examined, S9mix and a test strain were mixed together so as to make the addition amount of each sample to be 0.1 mL/plate, the mixture was multilayered using soft agar on a medium of a test plate, and then incubated at 37° C. for 48 hours. On the other hand, only DMSO was used as a sample solution to perform the same procedure as above for the negative control. […]
For orientation: The Ames test detects mutagens through reverse mutation in bacteria.

Data set [3] relates to Salmonella typhimurium TA98. Kind of data set: Reverse mutation test (Ames test), TA98. The data set is classed as cell-based. The method, then:
as §1, §2, §3, §4

Data set [4] is described as follows: Partition coefficient based on the octanol extraction method. The data set is classed as physicochemical. The note with it: octanol / 10 mmol/L phosphate buffer (pH 7.4); Table 6, Examples 20-21. The method, then: Partition coefficients based on the octanol extraction method (hereinafter referred to as log Poctanol) were measured, which are generally known as an indicator of permeability of compounds through the blood-brain barrier (hereinafter referred to as BBB).
A diethyl ether solution of Compound 1 prepared in Example 3 (Example 8), a diethyl ether solution of Compound 2 prepared in Example 6 (Example 9), and a diethyl ether solution of [^123I]-IMPY prepared in Reference Example 1 (Comparative Example 4) were each diluted with 10 mg/mL ascorbic acid-containing physiological saline solution, and adjusted to a radioactive concentration of 20-30 MBq/mL. To 2 mL of octanol, 10 μL each of the prepared sample solutions was added, 2 mL of 10 mmol/L phosphate buffer (pH 7.4) was added, followed by stirring for 30 seconds. After the mixture was centrifuged with a low-speed centrifuge (2000 rpm×60 min.), the octanol layer and the water layer were sampled each in an amount of 1 mL, and subjected to measurement of radioactivity count with an autowell gamma system (Type: ARC-301B, manufactured by Aloka). Using the obtained radioactivity count, log Poctanol was calculated in accordance with the equation (2).
A diethyl ether solution (Example 20) of Compound 4 prepared in Example 16, a diethyl ether solution (Example 21) of Compound 6 prepared in Example 19, and a diethyl ether solution (Comparative Example 7) of [^123I]-IMPY were each diluted with a 10 mg/mL ascorbic acid-containing physiological saline solution to adjust to a radioactive concentration of 20-30 MBq/mL. To 2 mL of octanol, 10 μL each of the prepared sample solution was added, and 2 mL of 10 mmol/L phosphate buffer (pH 7.4) was further added, followed by stirring for 30 seconds. After the mixture was centrifuged with a low-speed centrifuge (2000 rpm×60 min.), the octanol layer and the water layer were sampled each in an amount of 1 mL, and subjected to measurement of radioactivity count with an autowell gamma system (Type: ARC-301B, manufactured by Aloka). Using the obtained radioactivity count, logPoctanol was calculated in accordance with the equation (4).

Data set [5] has as its target T1, aggregated Aβ (Aβ1-42) injected into amygdaloid nucleus (Homo sapiens, UniProt P05067).
T1 construct: Aβ1-42 (manufactured by Wako) was dissolved in phosphate buffer (pH 7.4); purchased Wako
Kind of data set: Confirmation of imaging of amyloid in brain (ex vivo autoradiogram, Aβ1-42). The arrangement: species or system male Wistar rat. The settings on record: brain slice 60 minutes after tail vein injection. The procedure:
The following experiment was carried out in order to examine whether amyloid in brain can be imaged by the compound of the present invention.
(1) Aβ1-42 (manufactured by Wako) was dissolved in phosphate buffer (pH 7.4) and shaken at 37° C. for 72 hours, to obtain a 1 mg/mL suspension of aggregated Aβ (hereinafter referred to as amyloid suspension in the Examples).
(2) 2.5 μL (corresponding to […]) of the amyloid suspension was injected into an amygdaloid nucleus on one side of a male Wistar rat (7-week old). As a control, 2.5 μL of a phosphate buffered physiological saline solution (pH 7.4) was injected into an amygdaloid nucleus on the other side of the rat. The rats were examined 1 day after the injection of the amyloid suspension and the phosphate buffered physiological saline solution (pH 7.4).
(3) Compound 1 was dissolved in a 10 mg/mL ascorbic acid-containing physiological saline solution to obtain a sample solution (22 MBq/mL in radioactivity concentration in the sample solution). This solution was injected under thiopental anesthesia into the rat through the tail vein (dosage: 0.5 mL, dosed radioactivity: 11-13 MBq equivalent).
(4) Brain was removed 60 minutes after the injection to prepare a brain slice of 10 μm in thickness with a microtome (type: CM3050S, manufactured by LEICA). The brain slice was exposed to an imaging plate for 20 hours, and then image analysis was carried out by use of a Bio-imaging Analyzer (type: BAS-2500; manufactured by FUJIFILM Corporation).
(5) After the completion of the image analysis using the Bio-imaging Analyzer, […]
Thus, it was confirmed that amyloid was deposited on the slice (FIG. 6b).
The same procedures as in Example 12 were performed except using a solution of Compound 2 in a 10 mg/mL ascorbic acid as a sample solution (the radioactive concentration of the sample solution was 25 MBq/mL).
(1) Aβ1-42 (manufactured by Wako) was dissolved in phosphate buffer (pH 7.4) and shaken at 37° C. for 72 hours, to obtain 1 mg/mL of a suspension of aggregated Aβ (hereinafter referred to as amyloid suspension in the Examples).
(3) A sample solution (30 MBq/mL in radioactivity concentration, Example 24) in which Compound 4 was dissolved in a 10 mg/mL ascorbic acid-containing physiological saline solution and a sample solution (30 MBq/mL in radioactivity concentration, Example 25) in which Compound 6 was dissolved in a 10 mg/mL ascorbic acid-containing physiological saline solution were prepared. This solution was injected under thiopental anesthesia into the rat through the tail vein (dosage: 0.5 mL, dosed radioactivity: 11-15 MBq equivalent).
Thus, it was confirmed that amyloid was deposited on the slice (FIG. 12 and FIG. 13).

Data set [6] is described as follows: Transferability into brain and clearance. The settings on record: intravenous injection, rats, Table 7. The data set is classed as in vivo, male Wistar rats. The method, then: Using Compound 1 (Example 10) and Compound 2 (Example 11), a time course change of radioactive accumulation in brain of male Wistar rats (7-week old) was measured.
A diethyl ether solution of Compound 1 (Example 10) prepared in Example 3, a diethyl ether solution of Compound 2 (Example 11) prepared in Example 6 and a diethyl ether solution of [^123I]-IMPY (Comparative Example 5) prepared in Reference Example 1 were each diluted with 10 mg/mL ascorbic acid-containing physiological saline solution to adjust to a radioactive concentration of 8-12 MBq/mL. 0.05 mL each of the prepared sample solutions was injected under thiopental anesthesia into the tail vein of the rats. The rats were sacrificed by bleeding from abdominal artery, and brains were removed and subjected to measurement of mass of brains and further subjected to measurement of radioactivity (hereinafter referred to as A in this Example) with a single channel analyzer (detector type: SP-20 manufactured by OHYO KOKEN KOGYO Co., Ltd.) 2, 5, 30 and 60 minutes after the injection. Further, the radioactivity level of the rest of the whole body was measured in the same manner as above (hereinafter referred to as B in this Example). Using these measurement results, radioactive distribution per unit weight of brain (% ID/g) at the respective time points were calculated in accordance with the following formula (3).
Three animals were used for the experiment at the respective time points.
Using Compound 4 and Compound 6, a time course change of radioactive accumulation in brain of male Wistar rats (7-week old) was measured.
Compound 4 (Example 22), Compound 6 (Example 23) and a solution of [^123I]-IMPY (Comparative Example 8) prepared above in Reference Example 1 were each diluted with a 10 mg/mL ascorbic acid-containing physiological saline solution to prepare solutions (20-31 MBq/mL in radioactive concentration). 0.05 mL each of the prepared sample solutions was injected under thiopental anesthesia into the tail vein of the respective Wistar rat (7-week old). The rats were sacrificed by bleeding from abdominal artery, and brains were removed and subjected to measurement of mass of brains and further subjected to measurement of radioactivity (hereinafter referred to as A in this Example) with a single channel analyzer (detector type: SP-20 manufactured by OHYO KOKEN KOGYO Co., Ltd.) 2, 5, 30 and 60 minutes after the injection. Further, the radioactivity level of the rest of the whole body was measured in the same manner as above (hereinafter referred to as B in this Example). Using these measurement results, radioactive distribution per unit weight of brain (% ID/g) at the respective time points were calculated in accordance with the following formula (5).

The target of data set [7] is T2, aggregated Aβ (Aβ1-42) amyloid (Homo sapiens, UniProt P05067).
T2 construct: Aβ1-42 (manufactured by Wako) was dissolved in phosphate buffer (pH 7.4); purchased Wako
Nature of the data set: In vitro binding test: inhibition of [^125I]3′-I-BTA-0 binding to amyloid. The settings on record: [^125I]3′-I-BTA-0 400 pmol/L, amyloid 1 μmol/L, 22° C., 3 hours. The method, then: Affinity of the present compounds with amyloid was examined by the following in vitro binding tests.
The measured radioactivity level was defined as the background radioactivity level, and used in the calculation of the inhibition ratio (hereinafter referred to as BG).
(9) Using the radioactivity levels measured above in (7) and (8), the inhibition ratio was determined by the following formula (1).
A graph in which values converted by probit transformation from the obtained inhibition ratios were plotted relative to logarithms of concentrations of compounds for evaluation was prepared to obtain an approximate straight line by the least square method.

Setting [8] is: TA100, without addition of S9mix.
Where [9] appears, read: TA98, without addition of S9mix.

For orientation: IC50 means the point on the concentration scale where inhibition reaches its midpoint. A higher IC50 goes with weaker potency in that assay.

T2 sequence (P05067 672-713): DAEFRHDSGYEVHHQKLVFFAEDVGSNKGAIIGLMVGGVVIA
T1 sequence (P05067 672-713): as above

Consider `CN(C)c1ccc(-c2nc3ccc(I)cc3o2)cc1` [IBOX, 6-iodo-2-[4′-(N,N-dimethylamino)phenyl]benzoxazole], for which the “Clearance from normal tissues” value in data set [1] is reported as “insufficient in clearance from normal tissues”.
Consider `CCC[CH2][Sn]([CH2]CCC)([CH2]CCC)[c]1ccc2nc(-c3ccc(OCCO)cc3)cn2c1` [Compound 9, 6-tributylstannyl-2-[4′-(2″-hydroxyethoxy)phenyl]imidazo[1,2-a]pyridine], for which the Mutagenicity result in data set [2] (TA100, with addition of S9mix) is reported as “Negative”; in data set [2] (setting [8]), “Negative”; in data set [3] (TA98, with addition of S9mix), “Negative”; in data set [3] (setting [9]) it was “Negative”.
For the molecule `OCCOc1cccc(-c2cn3cc(I)ccc3n2)c1` [Compound 5, 2-[3′-(2″-hydroxyethoxy)phenyl]-6-iodoimidazo[1,2-a]pyridine], the Mutagenicity entry is reported as “Negative” in data set [2] (TA100, with addition of S9mix); “Negative” in data set [2] (setting [8]); “Negative” in data set [3] (TA98, with addition of S9mix); “Negative” in data set [3] (setting [9]).
`CN(C)c1ccc(/C=C/c2ccc(I)cc2)cc1` [m-I-SB, (E)-4-dimethylamino-4′-iodostilbene]: the “Clearance from normal tissues” value in data set [1] is given as “insufficient in clearance from normal tissues”.
“2-[3′-(2″-hydroxyethoxy)phenyl]-6-[^123I]iodoimidazo[1,2-a]pyridine [Compound 4]”: the logPoctanol value in data set [4] turned out to be 2.5. Further, in data set [5], the “Accumulation of radioactivity in amygdaloid nucleus on the amyloid-injected side” value is given as “marked accumulation of radioactivity”. The “Radioactive distribution per unit weight of brain” value is recorded as 0.56 % ID/g in data set [6] (After 2 min.), 0.28 % ID/g in data set [6] (After 5 min.), 0.04 % ID/g in data set [6] (After 30 min.) and 0.01 % ID/g in data set [6] (After 60 min.).
On to `CCOc1ccc(-c2cn3cc(I)ccc3n2)cc1` [Compound 8, 2-(4′-ethoxyphenyl)-6-iodoimidazo[1,2-a]pyridine], for which the Mutagenicity entry is “Negative” in data set [2] (TA100, with addition of S9mix); “Negative” in data set [2] (setting [8]); “Negative” in data set [3] (TA98, with addition of S9mix); “Negative” in data set [3] (setting [9]).
For the molecule `CN(C)c1ccc(-c2nc3ccc(I)cc3s2)cc1` [TZDM, 6-iodo-2-[4′-(N,N-dimethylamino)phenyl]benzothiazole], in data set [1], the “Clearance from normal tissues” value is reported as “insufficient in clearance from normal tissues”.
Turning to `Nc1c(/N=N/c2ccc(-c3ccc(/N=N/c4cc(S(=O)(=O)O)c5ccccc5c4N)cc3)cc2)cc(S(=O)(=O)O)c2ccccc12` [Congo Red, reference compound], in data set [7], the IC50 was more than 1 µM.
